Results on 9 compounds are retold here after patent US10189774B2 (priority 2006, dated 2019).

For series [1] the following is noted: pH 7.4.
Series [2] concerns human myeloma cell line derived from the ascites of a patient with multiple myeloma. The settings on record: mouse, in vivo.
The test system of series [3] is Human Gastric Cancer HGC-27 cell. Description: cells. In kind it is cell-based. The settings on record: for EC50: Homo sapiens, HGC-27, 72 h, read-out: EC50, HGC-27 cell growth inhibition; for HGC-27 cell growth inhibition rate: 72 hours.
Series [4] is described as follows: physchem. Conditions: water.

By EC50 is commonly meant the concentration needed to bring the measured effect to its halfway point. What is called solubility is the dissolved amount per volume that the medium holds.

Several values for one entry are separate records, joined by “and”; a condition that tells them apart may be missing. Identical values can stand only once. Like-named read-outs stand apart in the source and are kept apart here.

`Br.CCN(CC)CCOC(=O)CCCc1ccc(N(CCCl)CCCl)cc1` [N,N-diethylaminoethyl 4-[bis(2-chloroethyl)amino]benzenebutyrate.HBr]: in series [1], the “In vitro penetration rate (apparent flux) of HPPs” value amounted to 1.01 mg/cm^2/h. Moreover, in series [2], the “Life Elongation Rate” value was 282% and 253%; the “None Disease Rate” value is recorded as 4/7; the “Survival Period” value was 128.5 ± 1.3 days and 115.2 ± 2.1 days.
For the compound `CCN(CC)CCOC(=O)CCCc1ccc(N(CCS(C)(=O)=O)CCS(C)(=O)=O)cc1.Cl` [diethylaminoethyl 4-[bis(2-methylsulfonylethyl)amino]benzenebutyrate.HCl], in series [2], the “Life Elongation Rate” value is 269% and 244%; the “None Disease Rate” value is 4/7 and 3/7; the “Survival Period” value was 122.5 ± 1.7 days and 111.2 ± 1.9 days.
With `CCN(CC)CCOC(=O)CCCc1ccc(N(CCCl)CCCl)cc1` [N,N-diethylaminoethyl 4-[bis(2-chloroethyl)amino]benzenebutyrate], in series [3], the EC50 was less than 6 µM. The “HGC-27 cell growth inhibition rate” value in series [3] (final concentration 0.5 μm) came out at 25.5%; in series [3] (final concentration 2 μm), 34.7%; in series [3] (final concentration 5 μm), 46.9%; in series [3] (final concentration 25 μm), 54.6%; in series [3] (final concentration 50 μm) it was 81.6%; in series [3] (final concentration 75 μm), 93.4%. For the same compound, the entries for the “HGC-27 cell growth inhibition rate” value in series [3] (final concentration 100 μm), in series [3] (final concentration 200 μm) and in series [3] (final concentration 500 μm) were 94.7%, 94.8% and 94.8%, respectively.
For the compound `CS(=O)(=O)CCN(CCS(C)(=O)=O)c1ccc(CCCC(=O)O)cc1` [4-[bis(2-methylsulfonylethyl)amino]benzenebutanoic acid], the “In vitro penetration rate (apparent flux) of parent compounds” value in series [1] (human) is listed as 0.01 mg/cm^2/h.
As for `CC(=O)O[C@H]1C(=O)[C@@]2(C)[C@H]([C@H](OC(=O)c3ccccc3)[C@]3(O)C[C@H](OC(=O)[C@H](O)[C@@H](NC(=O)c4ccccc4)c4ccccc4)C(C)=C1C3(C)C)[C@]1(OC(C)=O)CO[C@@H]1C[C@@H]2O` [taxol, Taxol], the concentration for a half-maximal effect (EC50) in series [3] is approximately 0.013 µM. For the same compound, the “HGC-27 cell growth inhibition rate” value in series [3] (final concentration 0.5 nM) was determined as 10.3%; in series [3] (final concentration 1 nm), 21.6%; in series [3] (final concentration 10 nm) it was 45.0%; in series [3] (final concentration 25 nm) it was 76.9%; in series [3] (final concentration 50 nm), 85.2%; in series [3] (final concentration 100 nm) it was 92.2%. In addition, the entries for the “HGC-27 cell growth inhibition rate” value in series [3] (final concentration 500 nm) and in series [3] (final concentration 5000 nm) were 94.7% and 95.8%, respectively.
For `Br.CCN(CC)CCOC(=O)[C@H](Cc1ccc(N(CCCl)CCCl)cc1)NC(C)=O` [4-[bis(2-chloroethyl)amino]-N-acetyl-L-phenylalanine N,N-diethylaminoethyl ester hydrobromide], in series [1] (human), the “In vitro penetration rate (apparent flux) of HPPs” value is 1.10 mg/cm^2/h. Also, in series [2] (hydrobromide), the “Life Elongation Rate” value is 287% and 266%; the “None Disease Rate” value is 4/7 and 3/7; the “Survival Period” value was 130.5 ± 1.6 days and 121.2 ± 1.8 days. Also, the solubility in series [4] stood at 300 mg/mL.
`Br.CCN(CC)CCOC(=O)CCCc1ccc(N(CCS(C)(=O)=O)CCS(C)(=O)=O)cc1` [diethylaminoethyl 4-[bis(2-methylsulfonylethyl)amino]benzenebutyrate•HBr]: the “In vitro penetration rate (apparent flux) of HPPs” value in series [1] amounted to 0.94 mg/cm^2/h.
For `O=C(O)CCCc1ccc(N(CCCl)CCCl)cc1` [chlorambucil], in series [3], the EC50 is more than 100 µM. Besides, the “HGC-27 cell growth inhibition rate” value in series [3] (final concentration 2 μm) turned out to be 0.3%; in series [3] (final concentration 5 μm), 1.6%; in series [3] (final concentration 25 μm) it was 25.0%; in series [3] (final concentration 50 μm), 34.9%; in series [3] (final concentration 75 μm), 34.2%; in series [3] (final concentration 100 μm) it was 39.2%. Besides, the figures for the “HGC-27 cell growth inhibition rate” value in series [3] (final concentration 200 μm) and in series [3] (final concentration 500 μm) were 47.7% and 81.0%, respectively. In series [1] (human), the “In vitro penetration rate (apparent flux) of parent compounds” value is 0.01 mg/cm^2/h. Besides, in series [2], the “Life Elongation Rate” value was 127% and 198%. Besides, in series [2], the “None Disease Rate” value was 2/7 and 3/7. Also, the “Survival Period” value in series [2] was 57.8 ± 1.5 days and 90.2 ± 1.9 days.
As for `N[C@@H](Cc1ccc(N(CCCl)CCCl)cc1)C(=O)O` [melphalan], the “In vitro penetration rate (apparent flux) of parent compounds” value in series [1] (human) is 0.01 mg/cm^2/h. For the same compound, in series [2], the “Life Elongation Rate” value is 195% and 122%; the “Survival Period” value was 88.5 ± 1.8 days and 55.7 ± 1.3 days.
